The numbers were not newly measured in US20060024360A1, “Stable injectable composition of alpha tocopheryl succinate, analogues and salts thereof” (SD Pharmaceuticals, Inc., priority 2004, published 2006), which cites them from elsewhere.

Where a name gives a salt, the structure may show the parent alone.

Data set [1] relates to mouse cancer line (C1271).
Data set [2] relates to malignant mesothelioma. Conditions: immunocompromised mice.
In data set [3] the test system is color cancer liver metastases. To be noted: in vivo.
Data set [4] has as its system human gastric carcinoma cell. Conditions: human cells.
Data set [5] has as its system melanoma. To be noted: mice.

In the case of `Cc1c(O)cc2c(c1C)O[C@](C)(CCC[C@H](C)CCC[C@H](C)CCCC(C)C)CC2` [gamma-tocopherol, Gamma-tocopherol], the induction of apoptosis result in data set [1] is listed as “not apoptogenic”.

Consider `CC(=O)Oc1c(C)c(C)c2c(c1C)CCC(C)(CCC[C@H](C)CCC[C@H](C)CCCC(C)C)O2` (stereo partly drawn) [alpha-tocopheryl acetate], for which the induction of apoptosis entry in data set [1] is “not apoptogenic”.

As for `Cc1c(C)c2c(c(C)c1OC(=O)CCC(=O)O)CC[C@@](C)(CCC[C@H](C)CCC[C@H](C)CCCC(C)C)O2` [alpha-tocopheryl succinate], in data set [2], the malignant mesothelioma entry is “suppressed malignant mesothelioma”. Further, in data set [3], the liver metastases entry is listed as “inhibiting color cancer liver metastases”. Besides, in data set [1], the induction of apoptosis entry is recorded as “induce apoptosis”. The “gastric carcinoma cell growth” value in data set [4] is “inhibits human gastric carcinoma cell growth”. Further, the melanoma growth result in data set [5] was “inhibited melanoma growth”.

In the case of `Cc1c(C)c2c(c(C)c1O)CC[C@@](C)(CCC[C@H](C)CCC[C@H](C)CCCC(C)C)O2` (racemic) [alpha-tocopherol, (±)-(2RS,4′RS,8′RS)-2,5,7,8-tetramethyl-2-(4′,8′, 12′-trimethyltridecyl)-6-chromanol], the induction of apoptosis entry in data set [1] is listed as “not apoptogenic”.

`Cc1c(C)c2c(c(C)c1OC(=O)CCCCCC(=O)O)CCC(C)(CCCC(C)CCCC(C)CCCC(C)C)O2` (stereo not drawn) [alpha-tocopheryl pimelate, Alpha-tocopheryl pimelate]: the induction of apoptosis result in data set [1] is “not apoptogenic”.

With `Cc1c(C)c2c(c(C)c1OC(=O)C(=O)O)CCC(C)(CCCC(C)CCCC(C)CCCC(C)C)O2` (stereo not drawn) [alpha-tocopheryl oxalate, Alpha-tocopheryl oxalate], in data set [1], the induction of apoptosis result was “induce apoptosis” and the “relative potency among alpha-tocopheryl derivatives tested” value is listed as “most potent”.

As to `Cc1c(C)c2c(c(C)c1OC(=O)c1cccnc1)CC[C@@](C)(CCC[C@H](C)CCC[C@H](C)CCCC(C)C)O2` [alpha-tocopheryl nicotinate], the induction of apoptosis result in data set [1] is “not apoptogenic”.

On to `Cc1c(C)c2c(c(C)c1OC(=O)CC(=O)O)CCC(C)(CCCC(C)CCCC(C)CCCC(C)C)O2` (stereo not drawn) [alpha-tocopheryl malonate, Alpha-tocopheryl malonate], for which the induction of apoptosis entry in data set [1] is reported as “induce apoptosis”.

Take `CCOC(=O)CCC(=O)Oc1c(C)c(C)c2c(c1C)CCC(C)(CCCC(C)CCCC(C)CCCC(C)C)O2` (stereo not drawn) [alpha-tocopheryl succinate ethyl ester]: the induction of apoptosis entry in data set [1] was “not apoptogenic”.
